Measured values: patent US4806566A, “Anti-gram positive bacteria tri-yne carbonates” (Merck & Co., Inc., priority 1987, dated 1989)
In brackets after ≈: the same amount, converted by molar mass.

Legend:
[1] = tested on: S. arueus; assay: Minimum inhibitory concentration, agar dilution, S. aureus; assay type: cell-based; details: Staphylococcus aureus, 24 h
Method: (§1) The free acid of the compound of formula I was prepared as aqueous solutions at a concentration of 1.28 mg/ml. Comparative agents vancomycin and streptomycin were prepared at 1.28 mg/ml in Sorensens' buffer, pH 7.
(§2) Each of the drugs was serially diluted twofold in 20×100 mm sterile petri dishes with the aid of a Pipetman. To each plate containing 1 ml of the antibiotic dilution was added 9 ml molten trypticase soy agar (TSA) (BBL) to yield final drug concentrations ranging from 128-0.031 mcg/ml. Plates were swirled to mix, allowed to solidify at room temperature and were stored overnight at 5° C.
(§3) Cultures were grown in trypticase soy broth (TSB) for 16 hours at 35° C. They were diluted 1-100 in TSB to obtain an inoculum of 10^4 cfu/spot when plated using a Denley multipoint inoculator calibrated to deliver 0.0015 ml. Inoculated plates were incubated for 24 hours at 35° C.
(§4) The minimum inhibitory concentration (MIC) was defined as the lowest concentration that allowed no growth or a barely visible haze.

[2] = tested on: Streptococcus faecalis; assay: Minimum inhibitory concentration, agar dilution, Streptococcus faecalis; assay type: cell-based; details: Enterococcus faecalis, 24 h, one isolate per line, 10^4 cfu/spot, trypticase soy agar, 24 hours at 35° C.
Method: as §1, §2, §3, §4

[3] = Stability of the free acid to concentration; assay type: physicochemical; details: on concentration of solutions
Method: (d) Due to the instability of the free acid of the compound of formula I to concentration, an alternate method was used to provide concentrated solutions. LH20 fractions 13-25 from Step C, 3250 ml, was extracted with 500 ml of 0.1M potassium phosphate buffer pH 7.2. The compound was extracted into the aqueous layer, 620 ml, which was reextracted with 200 ml of methylene chloride at pH 4.5. The methylene chloride extract was dried over anhydrous sodium sulfate. The extraction volumes could be adjusted to provide varying concentrations of the free acid of the compound of formula I in methylene chloride.

[4] = tested on: Staphyloccoccus aureus methicillin-resistant (S. aureus Meth-R); assay: Minimum inhibitory concentration, agar dilution, methicillin-resistant Staphylococcus aureus; assay type: cell-based; details: one isolate per line, 10^4 cfu/spot, trypticase soy agar, 24 hours at 35° C.
Method: as §1, §2, §3, §4

SMILES | MIC [1] [µg/mL] | MIC [2] [µg/mL] | instability of the free acid to concentration [3] | MIC [4] [µg/mL]
[H]/N=C(/N)N[C@H]1[C@H](O)[C@@H](O)[C@H](O[C@@H]2O[C@@H](C)[C@](O)(C=O)[C@H]2O[C@@H]2O[C@@H](CO)[C@H](O)[C@@H](O)[C@@H]2NC)[C@@H](N/C(N)=N\[H])[C@@H]1O [Streptomycin] | 116 (≈ 199 µM) | > 128 |  | 
CN[C@H](CC(C)C)C(=O)N[C@H]1C(=O)N[C@@H](CC(N)=O)C(=O)N[C@H]2C(=O)N[C@H]3C(=O)N[C@H](C(=O)N[C@H](C(=O)O)c4cc(O)cc(O)c4-c4cc3ccc4O)[C@H](O)c3ccc(c(Cl)c3)Oc3cc2cc(c3O[C@@H]2O[C@H](CO)[C@@H](O)[C@H](O)[C@H]2O[C@H]2C[C@](C)(N)[C@H](O)[C@H](C)O2)Oc2ccc(cc2Cl)[C@H]1O [Vancomycin] |  | 4 (≈ 2.76 µM) |  | 
C#CC#CC#CC(O)C1OC(=O)OC1CCCCCCC(=O)O (stereo not drawn) [Free Acid of the Compound of Formula I, 5-(1-hydroxy-2,4,6-heptatriynyl)-2-oxo-1,3 dioxolane] | 1 |  | instability | 0.5
